PubChem BioAssay AID248 (DTP/NCI, 2004)
Inconclusive results and toxic doses are left out. No stated cut-off is given here; in the data, active means T/C of 150% or more; inactive means T/C below 125%.

Tested on: L1210 leukemia ip in BDF1 mice, survival T/C
Assay: NCI In Vivo Anticancer Drug Screen. Data for tumor model L1210 Leukemia (intraperitoneal) in B6D2F1 (BDF1) mice
Conditions: endpoint: mean survival time, higher = longer survival
In short: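 Transplantable tumor model; survival measured in treated vs vehicle control mice. Value = treated/control.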

[1] = dose: 100.0 mg/kg/injection, schedule: Q01DX001 (ip), vehicle: saline
[2] = dose: 100.0 mg/kg/injection, schedule: Q04DX003 (ip), vehicle: Klucel (hydroxypropylcellulose) (HPC)
[3] = dose: 50.0 mg/kg/injection, schedule: Q01DX009 (ip), vehicle: water
[4] = dose: 100.0 mg/kg/injection, schedule: Q01DX009 (ip), vehicle: water
[5] = dose: 200.0 mg/kg/injection, schedule: Q01DX009 (ip), vehicle: water
[6] = dose: 200.0 mg/kg/injection, schedule: Q01DX001 (ip), vehicle: saline
[7] = dose: 100.0 mg/kg/injection, schedule: Q04DX003 (ip), vehicle: saline with Tween-80
[8] = dose: 200.0 mg/kg/injection, schedule: Q04DX003 (ip), vehicle: saline with Tween-80
[9] = dose: 50.0 mg/kg/injection, schedule: Q01DX009 (ip), vehicle: saline with Tween-80

Measured: T/C

Cc1ccc(NC(=O)Oc2ccc(OC(=O)Cc3ccccc3)cc2)cc1NC(=O)Oc1ccc(OC(=O)Cc2ccccc2)cc1
inactive: dose: 100.0 mg/kg/injection, schedule: Q01DX009 (ip), vehicle: other 96 % of control | dose: 200.0 mg/kg/injection, schedule: Q01DX009 (ip), vehicle: other 98 % of control | dose: 400.0 mg/kg/injection, schedule: Q01DX009 (ip), vehicle: other 93 % of control

OC(Nc1ccccn1)(C(F)(F)F)C(F)(F)F
inactive: [1] 103 % of control

O=[N+]([O-])c1cc(Cl)cc2c1nc(NCCO)c1ccccc12
inactive: dose: 25.0 mg/kg/injection, schedule: Q01DX009 (ip), vehicle: Klucel (hydroxypropylcellulose) (HPC) 95 % of control | dose: 50.0 mg/kg/injection, schedule: Q01DX009 (ip), vehicle: Klucel (hydroxypropylcellulose) (HPC) 97 % of control | [2] 97 % of control

O=C1CC(c2c[nH]c3nccnc23)NN1 (stereo not drawn)
inactive: dose: 6.25 mg/kg/injection, schedule: Q01DX009 (ip), vehicle: water 100 % of control | dose: 12.5 mg/kg/injection, schedule: Q01DX009 (ip), vehicle: water 100 % of control | dose: 25.0 mg/kg/injection, schedule: Q01DX009 (ip), vehicle: water 99 % of control | [3] 105 % of control | [4] 94 % of control | [5] 89 % of control

CCCCCCCCCCCCC(C)C(=O)O (stereo not drawn)
inactive: dose: 25.0 mg/kg/injection, schedule: Q04DX002 (ip), vehicle: Klucel (hydroxypropylcellulose) (HPC) 96 % of control | dose: 50.0 mg/kg/injection, schedule: Q04DX002 (ip), vehicle: Klucel (hydroxypropylcellulose) (HPC) 93 % of control | dose: 100.0 mg/kg/injection, schedule: Q01DX009 (ip), vehicle: Klucel (hydroxypropylcellulose) (HPC) 105 % of control | dose: 100.0 mg/kg/injection, schedule: Q04DX002 (ip), vehicle: Klucel (hydroxypropylcellulose) (HPC) 101 % of control | dose: 200.0 mg/kg/injection, schedule: Q01DX009 (ip), vehicle: Klucel (hydroxypropylcellulose) (HPC) 91 % of control | dose: 200.0 mg/kg/injection, schedule: Q04DX002 (ip), vehicle: Klucel (hydroxypropylcellulose) (HPC) 98 % of control | dose: 400.0 mg/kg/injection, schedule: Q01DX009 (ip), vehicle: Klucel (hydroxypropylcellulose) (HPC) 91 % of control | dose: 400.0 mg/kg/injection, schedule: Q04DX002 (ip), vehicle: Klucel (hydroxypropylcellulose) (HPC) 98 % of control

C#CC(C)(O)CC(C)C (stereo not drawn)
inactive: [1] 100 % of control | [6] 100 % of control

COc1ccc(OC(=O)Nc2ccc(C)cc2[N+](=O)[O-])cc1
inactive: [7] 102 % of control | [8] 98 % of control | dose: 400.0 mg/kg/injection, schedule: Q04DX003 (ip), vehicle: saline with Tween-80 93 % of control

Clc1ccc(-c2cc(=[N+]3CC[N+](=c4cc(-c5ccc(Cl)cc5)ss4)CC3)ss2)cc1
inactive: [3] 102 % of control | [4] 89 % of control | dose: 100.0 mg/kg/injection, schedule: Q04DX003 (ip), vehicle: water 106 % of control | [5] 105 % of control | dose: 200.0 mg/kg/injection, schedule: Q04DX003 (ip), vehicle: water 104 % of control | dose: 400.0 mg/kg/injection, schedule: Q04DX003 (ip), vehicle: water 107 % of control

Cc1cccc2c(C(=O)O)cc(-c3ccc(Cl)cc3)nc12
inactive: [9] 91 % of control

O=C(COc1ccc(Cl)cc1)OCCCl
inactive: dose: 87.5 mg/kg/injection, schedule: Q01DX009 (ip), vehicle: other 104 % of control | [2] 95 % of control | dose: 175.0 mg/kg/injection, schedule: Q01DX009 (ip), vehicle: other 98 % of control | dose: 200.0 mg/kg/injection, schedule: Q04DX003 (ip), vehicle: Klucel (hydroxypropylcellulose) (HPC) 97 % of control | dose: 350.0 mg/kg/injection, schedule: Q01DX009 (ip), vehicle: other 104 % of control | dose: 400.0 mg/kg/injection, schedule: Q04DX003 (ip), vehicle: Klucel (hydroxypropylcellulose) (HPC) 91 % of control

O=[N+]([O-])c1ccc(C[N+]23CCN(CC2)CC3)cc1
inactive: [9] 96 % of control | dose: 50.0 mg/kg/injection, schedule: Q04DX003 (ip), vehicle: saline with Tween-80 106 % of control | dose: 100.0 mg/kg/injection, schedule: Q01DX009 (ip), vehicle: saline with Tween-80 102 % of control | [7] 106 % of control | [8] 101 % of control

O=C1c2ccccc2C(=O)c2c(O)c(N3CCOCC3)cc(O)c21
inactive: dose: 0.25 mg/kg/injection, schedule: Q04DX003 (ip), vehicle: water 90 % of control | dose: 0.5 mg/kg/injection, schedule: Q04DX003 (ip), vehicle: water 102 % of control | dose: 1.0 mg/kg/injection, schedule: Q04DX003 (ip), vehicle: water 110 % of control | dose: 2.0 mg/kg/injection, schedule: Q04DX003 (ip), vehicle: water 100 % of control | dose: 4.0 mg/kg/injection, schedule: Q04DX003 (ip), vehicle: water 102 % of control | dose: 8.0 mg/kg/injection, schedule: Q04DX003 (ip), vehicle: water 100 % of control | dose: 16.0 mg/kg/injection, schedule: Q04DX003 (ip), vehicle: saline 102 % of control | dose: 16.0 mg/kg/injection, schedule: Q04DX003 (ip), vehicle: water 100 % of control | dose: 32.0 mg/kg/injection, schedule: Q04DX003 (ip), vehicle: saline 110 % of control | dose: 64.0 mg/kg/injection, schedule: Q04DX003 (ip), vehicle: saline 102 % of control

CCOC(=O)c1[nH]c(COC(C)=O)c(CCC(=O)O)c1C
inactive: dose: 25.0 mg/kg/injection, schedule: Q04DX003 (ip), vehicle: Klucel (hydroxypropylcellulose) (HPC) 101 % of control | dose: 50.0 mg/kg/injection, schedule: Q04DX003 (ip), vehicle: Klucel (hydroxypropylcellulose) (HPC) 95 % of control | dose: 100.0 mg/kg/injection, schedule: Q01DX001 (ip), vehicle: Klucel (hydroxypropylcellulose) (HPC) 101 % of control | [2] 98 % of control | dose: 200.0 mg/kg/injection, schedule: Q01DX001 (ip), vehicle: Klucel (hydroxypropylcellulose) (HPC) 93 % of control | dose: 400.0 mg/kg/injection, schedule: Q01DX001 (ip), vehicle: Klucel (hydroxypropylcellulose) (HPC) 88 % of control

NC(N)=N/N=C/c1ccc[nH]1
inactive: dose: 15.0 mg/kg/injection, schedule: Q01DX Z (ip), vehicle: saline 94 % of control | dose: 30.0 mg/kg/injection, schedule: Q01DX Z (ip), vehicle: saline 99 % of control | dose: 60.0 mg/kg/injection, schedule: Q01DX Z (ip), vehicle: saline 96 % of control | dose: 120.0 mg/kg/injection, schedule: Q01DX Z (ip), vehicle: saline 91 % of control | dose: 120.0 mg/kg/injection, schedule: Q01DX Z (oral), vehicle: saline 105 % of control | dose: 240.0 mg/kg/injection, schedule: Q01DX Z (ip), vehicle: saline 93 % of control | dose: 240.0 mg/kg/injection, schedule: Q01DX Z (oral), vehicle: saline 106 % of control | dose: 480.0 mg/kg/injection, schedule: Q01DX Z (ip), vehicle: saline 98 % of control | dose: 480.0 mg/kg/injection, schedule: Q01DX Z (oral), vehicle: saline 103 % of control | dose: 960.0 mg/kg/injection, schedule: Q01DX Z (oral), vehicle: saline 103 % of control

CCOC(=O)CCC(=O)C(=O)OCC
inactive: [1] 92 % of control | [6] 102 % of control | dose: 400.0 mg/kg/injection, schedule: Q01DX001 (ip), vehicle: saline 92 % of control
